Assay results reported in ChEMBL document CHEMBL1201862, “PubChem BioAssay data set” (2004).
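Test compounds were applied to cells in 96-well plates for 48 hours at 5 doses. GI50: concentration for 50% inhibition of growth.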 Calls of active or inactive are those of the source. No stated cut-off is given here; in the data, active = GI50 up to about 1.1 µM and inactive = higher.

Experiments:
Test in all cases: inhibition of tumour cell growth, NCI panel, 48 h
KM12 = test system: KM12
CCRF-CEM = test system: CCRF-CEM
HL-60 = test system: HL-60
CAKI-1 = test system: CAKI-1
HT-29 = test system: HT-29
786-0 = test system: 786-0
HCC 2998 = test system: HCC 2998
MOLT-4 = test system: MOLT-4
OVCAR-4 = test system: OVCAR-4
LOX IMVI = test system: LOX IMVI
NCI-H23 = test system: NCI-H23
SF-268 = test system: SF-268
OVCAR-8 = test system: OVCAR-8
SF-295 = test system: SF-295
OVCAR-3 = test system: OVCAR-3
A498 = test system: A498

Structure (SMILES) | GI50 (KM12) | GI50 (CCRF-CEM) | GI50 (HL-60) | GI50 (CAKI-1) | GI50 (HT-29) | GI50 (786-0) | GI50 (HCC 2998) | GI50 (MOLT-4) | GI50 (OVCAR-4) | GI50 (LOX IMVI) | GI50 (NCI-H23) | GI50 (SF-268) | GI50 (OVCAR-8) | GI50 (SF-295) | GI50 (OVCAR-3) | GI50 (A498)
COC(=O)C1=C(C(=O)OC)C2=S(SC3=C2CCCC3)S1 (stereo not given) | 20.8 µM (inactive) | 2.98 µM (inactive) | 9.48 µM (inactive) | 20 µM (inactive) | 18.7 µM (inactive) | 4.11 µM (inactive) | > 100 µM (inactive) | 12 µM (inactive) | 19 µM (inactive) | 2.79 µM (inactive) | 24.1 µM (inactive) | 37.6 µM (inactive) | 12.9 µM (inactive) | 46.1 µM (inactive) | 16.4 µM (inactive) | 
N#CC(/C(CCCC(=O)Nc1cccc([N+](=O)[O-])c1)=N\NC(=O)c1c(O)ccc2ccccc12)c1nc2ccccc2s1 (stereo not given) | 28.8 µM (inactive) | 5.35 µM (inactive) | 3.16 µM (inactive) | 36.7 µM (inactive) | 37 µM (inactive) | 34.6 µM (inactive) |  | 11.7 µM (inactive) | 24.3 µM (inactive) |  | 37.5 µM (inactive) | 13.1 µM (inactive) | 18.5 µM (inactive) | 28.6 µM (inactive) | 16.3 µM (inactive) | 35.1 µM (inactive)
CCC(=O)OC[n+]1ccc2c(C)c3[nH]c4ccc(OC)cc4c3c(C)c2c1 | 0.0875 µM (active) | 0.0685 µM (active) | 1.66 µM (inactive) | 0.188 µM (active) | 0.0568 µM (active) | 0.176 µM (active) |  | 0.0142 µM (active) | 0.0865 µM (active) | 0.0927 µM (active) | 0.22 µM (active) | 0.24 µM (active) | 0.0755 µM (active) | 0.0738 µM (active) | 1.34 µM (inactive) | 1.06 µM (active)
CC1OC(n2ccc3ccc([N+](=O)[O-])cc32)C(O)C(O)C1O (stereo not given) | > 100 µM (inactive) | > 100 µM (inactive) | > 100 µM (inactive) | > 100 µM (inactive) | > 100 µM (inactive) | > 100 µM (inactive) |  | > 100 µM (inactive) | > 100 µM (inactive) | > 100 µM (inactive) | > 100 µM (inactive) | > 100 µM (inactive) | > 100 µM (inactive) | > 100 µM (inactive) | > 100 µM (inactive) | > 100 µM (inactive)
[O-]/[N+](=C\c1ccccc1)[C@H](COCc1ccccc1)c1ccccc1 | 70.3 µM (inactive) | 50.6 µM (inactive) | 25.2 µM (inactive) |  | 71 µM (inactive) | > 100 µM (inactive) | > 100 µM (inactive) | 36.5 µM (inactive) |  | > 100 µM (inactive) | 4.45 µM (inactive) | 55.2 µM (inactive) | > 100 µM (inactive) | 36 µM (inactive) | 27.6 µM (inactive) | > 100 µM (inactive)
Cc1ccc(C(=O)Nc2ccccc2)cc1/N=N/N(C)C | > 100 µM (inactive) |  |  | > 100 µM (inactive) | > 100 µM (inactive) | 21 µM (inactive) | > 100 µM (inactive) |  | > 100 µM (inactive) | > 100 µM (inactive) | > 100 µM (inactive) | > 100 µM (inactive) | > 100 µM (inactive) | > 100 µM (inactive) | > 100 µM (inactive) | 
O=[N+]([O-])c1nccn1CC(O)c1ccccc1 (stereo not given) | > 100 µM (inactive) | > 100 µM (inactive) | > 100 µM (inactive) | > 100 µM (inactive) | > 100 µM (inactive) | > 100 µM (inactive) |  | > 100 µM (inactive) | > 100 µM (inactive) | > 100 µM (inactive) | > 100 µM (inactive) | > 100 µM (inactive) | > 100 µM (inactive) | > 100 µM (inactive) | > 100 µM (inactive) | > 100 µM (inactive)
